In patent publication US7179800B2 (priority 2002, dated 2007):

Assays:
CB2 receptor = target: T1, CB2 receptor (Homo sapiens, UniProt P34972); experiment: CB2 binding procedure: displacement of [3H]CP-55,940 from membranes of transfected CHO cells; details: for CB1/CB2 (ratio of Ki): CB1 Ki divided by CB2 Ki; for Ki: means ± SEM, [3H]CP-55,940, transfected CHO cell membranes, read-out: Ki (nM) CB2; for fold decrease in CB2 affinity: relative to the comparator analog
T1 construct: expressed in transfected cells; host or cells: CHO cells, G418-selected transfected line

CB1 receptor = CB1 receptor (Rattus norvegicus, UniProt P20272); experiment: CB1 binding procedure: displacement of [3H]CP 55,940 from rat whole-brain P2 membranes; parameters: whole brain was homogenized and centrifuged; from tissue; host or cells: rat whole brain, P2 membrane fraction; details: for Ki: means ± SEM, [3H]CP 55,940, rat brain membranes, read-out: Ki (nM) CB1; for fold decrease in CB1 affinity: relative to the comparator analog
Sequence of CB1 receptor (P20272 whole entry): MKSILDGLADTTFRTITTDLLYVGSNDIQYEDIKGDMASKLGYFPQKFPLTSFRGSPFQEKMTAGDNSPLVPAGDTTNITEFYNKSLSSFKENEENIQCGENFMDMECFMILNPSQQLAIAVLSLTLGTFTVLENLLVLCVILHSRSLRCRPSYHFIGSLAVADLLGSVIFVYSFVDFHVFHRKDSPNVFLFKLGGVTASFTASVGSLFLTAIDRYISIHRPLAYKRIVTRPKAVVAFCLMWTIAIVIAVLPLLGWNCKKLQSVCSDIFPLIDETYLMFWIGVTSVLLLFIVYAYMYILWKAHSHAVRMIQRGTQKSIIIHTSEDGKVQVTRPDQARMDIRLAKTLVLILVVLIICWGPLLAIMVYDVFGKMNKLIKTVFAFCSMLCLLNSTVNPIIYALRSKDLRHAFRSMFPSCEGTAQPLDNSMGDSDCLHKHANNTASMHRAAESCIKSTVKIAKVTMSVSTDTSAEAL

T1 sequence (P34972 whole entry): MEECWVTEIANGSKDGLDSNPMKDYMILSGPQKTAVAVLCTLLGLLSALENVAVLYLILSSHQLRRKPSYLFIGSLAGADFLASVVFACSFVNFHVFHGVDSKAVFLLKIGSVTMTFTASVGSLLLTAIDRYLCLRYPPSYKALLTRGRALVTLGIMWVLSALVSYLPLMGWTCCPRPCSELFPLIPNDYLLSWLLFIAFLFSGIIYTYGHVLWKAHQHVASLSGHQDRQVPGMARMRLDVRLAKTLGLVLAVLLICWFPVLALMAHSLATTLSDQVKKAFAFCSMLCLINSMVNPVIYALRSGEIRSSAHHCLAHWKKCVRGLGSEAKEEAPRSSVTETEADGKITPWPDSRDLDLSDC

SMILES	CB1/CB2 (ratio of Ki) (CB2 receptor)	Ki (CB2 receptor) [nM]	Ki (CB1 receptor) [nM]	fold decrease in CB2 affinity (CB2 receptor)	fold decrease in CB1 affinity (CB1 receptor)
CCCCCCC(C)(C)c1cc(O)c(C2CCCC(C)C2)c(O)c1 (mixture of isomers) [O-1657, 2-(3-Methylcyclohexyl)-5-(1′,1′-dimethylheptyl)-resorcinol]	17	0.8 ± 0.04	14		
CCCCCCC(C)(C)c1cc(O)c([C@H]2CCCC(C)C2)c(O)c1 (single isomer, unassigned) [O-1826]	50	0.8 ± 0.05	40		
CCCCCCC(C)(C)c1ccc(-c2cc(C)ccc2C(C)C)c(O)c1 [O-1376, 3-1′,1′-Dimethylheptyl-6-(2-isopropyl-5-methylphenyl)phenol]	11	3 ± 0.4	33 ± 4		
CCCCCCC(C)(C)c1cc(O)c(C2CCCCC2)c(O)c1 [O-1422, Cyclohexyl-5-(1′,1′-dimethylheptyl)-resorcinol]	7	1.5 ± 0.1	11 ± 2		
CCCCCCC(C)(C)c1cc(O)c(C2=CCCCC2)c(O)c1 [O-1423]	3	28 ± 5	97 ± 5		
CCCCCCC(C)(C)c1cc(O)c(C2CCSCC2)c(O)c1 [O-1425]	13	12 ± 2	153 ± 17	8 fold	14 fold
CCCCCCC(C)(C)c1cc(O)c(C2CCCCC2C)c(O)c1 (stereo not shown) [O-1658, 2-(2-Methylcyclohexyl)-5-(1′,1′-dimethylheptyl)-resorcinol]	16	1 ± 0.3	16 ± 2		
CCCCCCC(C)(C)c1cc(O)c(C2CCC(C)CC2)c(O)c1 (stereo not shown) [O-1659, 2-(4-Methylcyclohexyl)-5-(1′,1′-dimethylheptyl)-resorcinol]	9	5 ± 0.9	45 ± 1	about 5 fold	about 5 fold
CCCCCCC(C)(C)c1cc(O)c(C2C3CC4CC(C3)CC2C4)c(O)c1 (stereo not shown) [O-1660, 2-(2-Adamantyl)-5-(1′,1′-di-methylheptyl)-resorcinol]	2	3 ± 0.8	7 ± 1		
CCCCCCC(C)(C)c1cc(O)c(C2CCSC2)c(O)c1 (stereo not shown) [O-1661, 2-(Tetrahydrothiophen-3-yl)-5-(1′,1′-dimethylheptyl)-re-sorcinol]	5	28 ± 12	138 ± 4		
CCCC(C)(C)c1cc(O)c(C2CCCC(C)C2)c(O)c1 (stereo not shown) [O-1890, 2-(3-Methylcyclohexyl)-5-(1′,1′-dimethylbutyl)-resorcinol]	7	13 ± 1	96 ± 4		
